Where a name gives a salt, the structure may show the parent alone.
Assays:
S. pyogenes T membrane [1] = assay: Membrane permeation, SYTOX Green; format: cell-based, Streptococcus pyogenes
Method: (§1) Permeation and depolarization of S. pyogenes ^T membrane by DICAMs were assayed with the fluorescent probes SYTOX Green and DiSC3(5), respectively, in a Varioskan Flash microplate reader (Thermo Scientific; Spain) using FluoroNunc 96-well plates (Thermo Scientific; Spain). For permeation assays, cells were grown to an OD550 ≈ 0.3, washed once with PBS pH 7.2 (3,800 × g, 7 min, room temperature), and adjusted to a final OD550 ≈ 0.4 (∼10^8 CFU/mL) with the same buffer before mixing in the dark with SYTOX Green (5 µM final concentration). One hundred µL of this suspension was dispensed per plate well and the signal stabilization was monitored for 15 min (λex = 485 nm; λem = 520 nm). Then, 100 µL of two-fold serially diluted lipopeptide samples was added and changes in fluorescence intensity were registered for 60 min at 37°C. SYTOX Green (900 Da) binds to intracellular DNA when the cell membrane is damaged, thereby increasing fluorescence intensity ([Roth et al., 1997]). Positive controls (100% membrane permeabilization) were carried out by adding Titron X-100 (0.01% final concentration) to untreated bacterial samples ([Rathinakumar et al., 2009]). For membrane depolarization assays, 180 µL of an OD550 ≈ 0.2 culture (BHI; ≈ 10^7 CFU/mL) supplemented with DiSC3(5) (1 µM final concentration) was distributed per well, and signal stabilization was registered for 30 min (λex = 622 nm; λem = 670 nm) ([Te Winkel et al., 2016]). Subsequently, 20 µL of a two-fold serial dilution of lipopeptide in culture medium was added, and fluorescence intensity was recorded for 60 min at 37°C. Partition of DiSC3(5) to the surface of polarized cells decreases the probe fluorescence, and its release, caused by membrane depolarization, results in an increase in fluorescence. […] The background signal of controls with bacterial cells without the fluorescent probe, as well as the dye fluorescence in the presence of the tested compounds without bacteria, were also registered. No change in the fluorescence intensity of the probes occurred upon DICAM addition in the absence of bacterial cells.

S. pyogenes T membrane [2] = assay: Membrane depolarization, DiSC3(5); format: cell-based, Streptococcus pyogenes; settings: S. pyogenes T in BHI, OD550 ≈ 0.2, DiSC3(5) 1 µM, 37°C
Method: as §1

S. pneumoniae D39 = assay: Viability after challenge at mid-exponential (T2) or early stationary (T3) phase; format: cell-based, Streptococcus pneumoniae; settings: S. pneumoniae D39, 50 µM, C+Y, 37°C
Method: The effect of DICAMs at different phases of culture growth was also investigated. DICAMs (50 μM) were added to cultures in the early exponential phase (OD550 ≈ 0.15; T1), late exponential phase (OD550 ≈ 0.3–0.4; T2), or near the stationary phase of growth (OD550 ≈ 0.5–0.7; T3) and the evolution of OD values was followed at 37°C for at least 2 h. By default, the variation in cell viability was also determined. Negative and positive controls were run in parallel.

[3] = test system: S. pneumoniae R6 biofilms; assay: Killing of preformed biofilms; format: cell-based, Streptococcus pneumoniae; settings: S. pneumoniae R6 biofilm, 1 h, 37°C, plating on blood agar
Method: Biofilms were prepared as described ([Domenech and García, 2020]). Briefly, S. pneumoniae R6 cells in late exponential growth (OD550 ≈ 0.6; C + Y medium) were pelleted by centrifugation, resuspended in an equal volume of fresh medium, diluted 1/100 (4.5 × 10^6 CFU/mL), and then dispensed (200 µL per well) in 96-well flat-bottom polystyrene plates (Costar 3,595; Corning; Spain). After plate incubation at 34°C for 4.5 h without shaking, bacterial growth (non-adherent cells plus biofilm-forming cells) was determined by measuring the OD550 using a VersaMax microplate absorbance reader. The supernatant (non-adherent cells) was replaced by 200 μL of DICAM 4 (150, 300 or 600 µM) prepared by dilution in sterile water and plate incubation was continued for 1 h at 37°C. Plates were then washed and the biofilms disaggregated in sterile water for viable cell determination in Mueller-Hinton blood agar plates after overnight incubation at 37°C. For the observation of biofilms by CLSM, bacteria were grown on glass-bottomed dishes (WillCo-dish; WillCo Wells, Netherlands) and treated as above, plating 2 mL of the final inoculum per disc and then adding 0.5 mL of DICAM solution. […] Laser intensity and gain were kept the same for all images and they were analyzed using LCS software from Leica. […]

[4] = test system: A549, IMR-90 and HeLa cells; settings: 48 h
Method: DICAM’s cytotoxicity was determined employing a modified MTT assay as described elsewhere ([Antúnez-Mojica et al., 2016]) using human lung carcinoma epithelial cells A549, human fetal lung fibroblasts IMR-90, and human HeLa cervix carcinoma cells treated with increasing concentrations of DICAMs (0.8–200 µM range). A549 cells were grown in RPMI 1640 (Gibco; Fisher Scientific, Spain) supplemented with 10% FCS, 2 mM glutamine, 100 IU/mL penicillin and 100 μg/mL streptomycin. IMR-90 and HeLa cells were cultured in DMEM (Gibco; Fisher Scientific, Spain) supplemented with 10% FCS, 2 mM L-glutamine, 1 mM pyruvate, 100 IU/L penicillin, 100 μg/mL streptomycin and 40 μg/mL gentamycin. Cell viability was assessed after 48 h exposure to DICAMs. Vinblastine was used as a positive control. IC50 value is the concentration that gives 50% inhibition of cell growth and was determined using SigmaPlot (Systat) fitting to a Four Parameter Logistic curve.

CCCCCCCCCCCCCCCCCCNC(=O)[C@H](CCC(=O)O)NC(=O)[C@H]1CCCN1C(=O)[C@H](C)NC(=O)OCc1ccccc1 [DICAM 3, Cbz-Ala- Pro -Glu-NH-C18H37]
Lag before steady increase in SYTOX Green fluorescence (S. pyogenes T membrane [1]; S. pyogenes T in PBS pH 7.2, SYTOX Green 5 µM, 37°C, dose-dependent lag): more than 7 min | Time to plateau of SYTOX green influx (incomplete influx) (S. pyogenes T membrane [1]; S. pyogenes T, below 12.5 µM compound): around 40 min | Time for dissipation of the transmembrane potential (S. pyogenes T membrane [2]): 5 to 10 min

CCCCCCCCCCCCCCCCCCNC(=O)[C@H](CCC(=O)O)NC(=O)[C@H]1CCCN1C(=O)[C@H](C)N [DICAM 4, Ala- Pro -Glu-NH-C18H37 ·HCl]
Death, addition at T3, approximately 3 h (S. pneumoniae D39): ≥ 98% | Decrease of viability, addition at T3, approximately 3 h (S. pneumoniae D39): ≈ 1.7 log units | Decrease of viability, addition at T2, 30 min (S. pneumoniae D39; 30 min incubation): ≈ 3 log units | Decrease of viability, addition at T2, 3 h (S. pneumoniae D39; 3 h incubation): ~5 log units | Cells killed in preformed biofilms at 300 μM [3]: ~90%

CCCCCCCCCCCCCCCCCCNC(=O)[C@H](C)NC(=O)[C@H]1CCCN1C(=O)[C@H](C)N [DICAM 14, Ala- Pro -Ala-NH-C18H37 · HCl]
IC50 [4]: 7.3 µM

CCCCCCCCCCCCCCCCCCNC(=O)[C@H](CCC(=O)O)NC(=O)[C@H]1CCCN1C(=O)[C@H](CCC(=O)O)NC(=O)OCc1ccccc1 [DICAM 19, Cbz-Glu- Pro -Glu-NH-C18H37]
Time for dissipation of the transmembrane potential (S. pyogenes T membrane [2]): 5 to 10 min

Reference: article PMC11329928, “Design, synthesis and structure-activity relationship (SAR) studies of an unusual class of non-cationic fatty amine-tripeptide conjugates as novel synthetic antimicrobial agents” (Frontiers in Pharmacology, 2024)
